US20120157401A1, “METHODS FOR TREATING NEUROFIBROMATOSIS” (PTC Therapeutics, Inc., priority 2009, published 2012)
“And” between values parts separate entries of the source, which are not always exact repeats. Identical values can stand only once. Like-named read-outs stand apart in the source and are kept apart here.

What was measured:
HeLa cells = assay: Cell Titer Glo cytotoxicity / cell viability assay in HeLa cells (CC50); type: cell-based, human; conditions: any concentration tested
From the text: A dose-response analysis may be performed using the ELISA assay and conditions described above. The conditions for the dose-response ELISA are analogous to those described above. A series of, e.g., seven different concentrations may be analyzed. In parallel, a dose-response cytotoxicity assay may be performed using Cell Titer Glo (Promega) under the same conditions as the ELISA to ensure that the inhibition of VEGF expression was not due to the cytotoxicity.
Experimental Design. HeLa (human cervical carcinoma) cell cultures were established under normoxic conditions (21% oxygen). HeLa cells increase VEGF production 4- to 5-fold in response to hypoxia. […] At the completion of treatment, the conditioned media were collected and the VEGF protein levels were assayed in an enzyme-linked immunosorbent assay (ELISA) with primary antibodies that recognize the soluble VEGF121 and VEGF165 isoforms (R & D Systems, Minneapolis, Minn., USA). To ensure that decreases in VEGF concentration were not due to cytotoxicity, cultures were assayed using a standard assay ([…]-GLO® Luminescent Cell Viability Assay; Promega, Madison, Wis., USA) that measures total cellular adenosine triphosphate (ATP) concentrations as an indicator of cell viability.

[1] = Trough plasma concentrations of Compound #10 in HT1080 xenograft mice (HPLC-MS/MS); type: in vivo; conditions: athymic nude, mouse, oral, 1 mg/kg BID
tumor VEGF = assay: Tumor VEGF content ELISA in microvessel density study, HT1080 xenografts; type: in vivo, human; conditions: racemic mixture, 5 mg/kg of Compound #10 oral BID, 10 days
Protocol: Experimental Design. HT1080 cells (5×10^6 cells/mouse) were implanted subcutaneously in male athymic nude mice.
At the end of treatment, the mice were sacrificed. Excised tumors were assayed by ELISA for VEGF content as described in Section 9.1.1.1, and were sectioned and immunostained with an anti murine CD31 antibody that is specific for endothelial cells.

HT1080 cells = assay: Cell cycle analysis by propidium iodide flow cytometry in HT1080 cells (percent cells in S-phase, Table 24); type: cell-based, human; conditions: HT1080, normoxic, 18 hours
Protocol: Experimental Design. […] After treatment, cells were trypsinized, and stained with propidium iodide (PI) dye to measure DNA content of individual cells by flow cytometry. Output comprised histograms showing relative DNA content in 10,000 cells.
While compounds which cause greater than 20% of the cells to accumulate in S-phase at 100 nM are considered active, a larger percentage of cells may be accumulated in S-phase at lower doses depending on the Compound, as shown in FIG. 12 for example.

CYP1A2 = biological target: T1, CYP1A2 (Homo sapiens, UniProt P05177); assay: CYP inhibition: CYP1A2; type: in vitro ADME; conditions: human hepatic microsomes or recombinant isoenzymes
T1 construct: host or cells: human hepatic microsomes or recombinant isoenzyme (not distinguished)
From the text: It is possible that in certain clinical trial subjects, such agents may need to be adjusted for dosing or replaced by alternative agents that are not metabolized by CYP2D6, particularly when such agents may have a low therapeutic index.

[2] = 7-day oral toxicity study in rats; type: in vivo
Protocol: A battery of genotoxicity studies was also performed. […] The L23 vehicle was used.
Maximal exposures occurred at a dose of 120 mg/kg/day.

[3] = test system: Chinese hamster ovary (CHO) cells; assay: Chromosome aberration study in CHO cells; type: cell-based; conditions: with and without metabolic activation
Protocol: Genotoxicity was assessed in a battery of in vitro and in vivo studies that included a bacterial reverse mutation study, a chromosome aberration study in Chinese hamster ovary (CHO) cells, and a micronucleus study in rats by the oral route. The in vitro studies were performed in the presence and absence of an exogenous metabolic activation system.

IL-6 = assay: Patients: serum and plasma IL-6 levels; type: in vivo, human
Protocol: Subjects with NF2 may receive continuous daily treatment with a Compound administered at 100 mg per dose, 2 times a day (BID) for up to 1 year, or longer as appropriate, or until tumor progression. […] Tumor shrinkage or an improvement in hearing are indicators of efficacy.
Anti-angiogenic activity: Assessing VEGF concentrations provides a relevant and convenient mechanism-specific marker of Compound activity. […] For example, clinically validated ELISA kits (e.g., from R&D Systems, Minneapolis, Minn.) may be used to measure concentrations of VEGF, VEGF-C, P1GF, VEGFR, and inflammatory mediators such as IL-6 and IL-8. CT scan and MRI scan may also be used to assess peritumoral inflammation or edema.
Blood for VEGF, VEGFR, and Cytokines. Two blood samples (1 for plasma and 1 for serum) may be obtained for assessment of VEGF, VEGFR, and cytokine levels.
After processing, samples may be placed into a freezer at approximately −70° C. An ELISA-based multiplex system may be used to measure plasma VEGF and cytokine levels.

tumor volume = assay: Patients: tumor volume by MRI; type: in vivo, human
From the text: Antitumor activity: Previously used radiographic response and progression criteria (see, e.g., Widemann et al., J. Clin. Oncol., January 2006, 24(3):507-16; and di Tomaso, “Preliminary success with anti-angiogenic therapy of NF2-related tumors” (Meeting abstract) 2008 NF Conference, Children's Tumor Foundation, Bonita Springs, Fla., Jun. 6-10, 2008) can be used to evaluate the ability of a Compound to specifically induce tumor shrinkage.
Timing of Tumor Volume Assessment: Subjects may undergo tumor volume measurement at screening, and at various times throughout the treatment protocol.
Method of Assessment: The determination of antitumor efficacy may be based on objective tumor assessments made according to volumetric measurement (see Widemann et al., J Clin Oncol. 2006 Jan. 20; 24(3):507-16; di Tomaso et al., Preliminary success with anti-angiogenic therapy of NF2-related tumors. (Meeting abstract). 2008 NF Conference, Children's Tumor Foundation, Bonita Springs, Fla., Jun. 6-10, 2008; Harris et al., Neurosurgery. 2008 June 62(6): 1314-9) and treatment decisions by the physician can be based on these assessments.
The MRI examinations may be performed using a standard head coil with 1.5-T scanners. […] For VS quantitative assessment, the MRI scans may be transmitted to a Vitrea2 workstation (Vital Images, Minnetonka, Minn.) for image processing and volume calculation.

T1 sequence (P05177 whole entry): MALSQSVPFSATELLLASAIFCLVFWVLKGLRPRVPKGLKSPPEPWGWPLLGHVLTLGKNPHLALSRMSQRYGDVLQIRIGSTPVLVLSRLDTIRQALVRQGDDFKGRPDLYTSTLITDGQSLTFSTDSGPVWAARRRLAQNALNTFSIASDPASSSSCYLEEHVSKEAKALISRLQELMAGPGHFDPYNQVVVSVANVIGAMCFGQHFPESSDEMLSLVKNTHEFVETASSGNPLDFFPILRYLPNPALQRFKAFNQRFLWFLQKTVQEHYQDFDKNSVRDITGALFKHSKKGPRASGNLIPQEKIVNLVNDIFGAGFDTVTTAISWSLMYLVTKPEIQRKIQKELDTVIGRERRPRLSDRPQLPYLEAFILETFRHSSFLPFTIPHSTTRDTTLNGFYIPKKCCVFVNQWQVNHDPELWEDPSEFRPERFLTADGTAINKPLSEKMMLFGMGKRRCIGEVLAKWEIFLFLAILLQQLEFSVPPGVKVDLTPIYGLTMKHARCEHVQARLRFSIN

COc1ccc(C2c3[nH]c4ccc(Cl)cc4c3CCN2C(=O)Oc2ccc(Cl)cc2)cc1 (racemic) [Compound #10]
Cytotoxicity (cellular ATP) (HeLa cells): No cytotoxicity was observed | concentration at 16 h ([1]; 16 hours after the first day of dosing (n=3), read-out: Mean trough plasma concentration): 130 ng/mL and 280 nM | concentration at 16 h ([1]; 16 hours after the last dose on Day 18 (n=4), read-out: Steady state mean trough plasma concentration): 820 ng/mL | Mean inhibition of tumor VEGF concentration (tumor VEGF): 95% | Concentration from which accumulation of cells in S phase is observed (HT1080 cells): ≥ 1 nM | Effect on cell cycle distribution (FIG. 12, FIG. 24) (HT1080 cells; Compound #10 0.3-100 nM, Compound 1205 10 nM): induced a redistribution of the cycling characteristics | Inhibition of CYP1A2 (CYP1A2): No meaningful inhibition | Dose of maximal exposures ([2]; Sprague Dawley, rat, in vivo, po, 7 days): 120 mg/kg/day | NOAEL for 7-days ([2]; female rats): 120 mg/kg/day | NOAEL for 7-days ([2]; male rats): 40 mg/kg/day | Mean prothrombin time (PT) and activated partial thromboplastin time (aPTT) ([2]; rat, in vivo, 120 mg/kg/day): increases | Genotoxic effects, chromosome aberration in CHO cells [3]: no evidence of genotoxic effects | Plasma IL-6 levels in patients (FIG. 38) (IL-6): reduced | Tumor volume, one patient (FIG. 40) (tumor volume): reducing and stabilizing tumor volume
